Test results taken from US20110015371A1 (Vertex Pharmaceuticals Incorporated, priority 1994, published 2011).
pIC50, pKi: −log10 of the molar value. Non-standard residues stand in square brackets, D forms with d. Residues, ends and D or L forms follow the SMILES beside them. Pip = O=C(O)[C@@H]1CCCCN1

How the values were obtained:
[1] = test system: Human Peripheral Blood Mononuclear Cells (PBMC) or Enriched Adherent Mononuclear Cells; assay: Cell assay: IL-1β assay with human PBMC or enriched adherent mononuclear cells; format: cell-based; settings: Homo sapiens, PBMC, LPS-stimulated cells, mature IL-1β in supernatant by ELISA
Summary of the method: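 Human PBMC (suspension at 6×10^6 cells/ml) or adherent monocytes enriched by 1 h plating (2.5−3.0×10^5 cells/well) were stimulated with 5 ng/ml LPS (final) plus compound (5-6 dilutions, 0.1% DMSO final) for 16-18 hr at 37° C. Mature IL-1β in supernatants quantified by ELISA; duplicate cultures, duplicate ELISAs.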

ICE [2] = target: T1, ICE (Homo sapiens, UniProt P29466); assay: Enzyme assay with UV-visible substrate (Succinyl-Tyr-Val-Ala-Asp-pNitroanilide); format: biochemical
T1 sequence (P29466 120-297 limits assumed): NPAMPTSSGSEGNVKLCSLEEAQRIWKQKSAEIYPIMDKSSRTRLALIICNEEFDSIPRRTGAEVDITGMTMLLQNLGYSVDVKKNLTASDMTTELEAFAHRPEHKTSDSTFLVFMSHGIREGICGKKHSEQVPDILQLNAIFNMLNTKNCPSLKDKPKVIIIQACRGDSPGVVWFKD
T1 sequence (P29466 317-404 limits assumed): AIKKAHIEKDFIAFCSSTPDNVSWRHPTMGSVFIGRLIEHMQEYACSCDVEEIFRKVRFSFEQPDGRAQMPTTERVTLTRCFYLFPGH
Summary of the method: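 Enzyme preincubated with inhibitor in DMSO for 15 min at room temperature, then Succinyl-Tyr-Val-Ala-Asp-pNitroanilide added. pNA release followed at 405-603 nm, 37° C, over 20 minutes; rates (mOD/min) from linear fits. Ki and inhibition mode from fitting rates at varying inhibitor concentrations to standard kinetic equations.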

ICE [3] = target: T1, ICE; assay: Enzyme assay with fluorescent substrate (Acetyl-Tyr-Val-Ala-Asp-AMC); format: biochemical; settings: Example 2 table, read-out: Fluorescence Ki
Procedure: 2. Enzyme Assay with Fluorescent Substrate
This assay is run essentially according to Thornberry et al. (Nature 356: 768-774 (1992)), using substrate 17 referenced in that article. The substrate is: Acetyl-Tyr-Val-Ala-Asp-amino-4-methylcoumarin (AMC). The following components are mixed:
The assay is run in a 96 well microtiter plate. Buffer and ICE are added to the wells. The components are left to incubate at 37° C. for 15 minutes in a temperature-controlled wellplate. After the 15 minute incubation, the reaction is started by adding substrate directly to the wells and the reaction is monitored @37° C. for 30 minutes by following the release of the AMC fluorophore using an excitation wavelength for 380 nm and an emission wavelength of 460 nm. A linear fit of the data for each well is performed and a rate is determined in fluorescence units per second.
For determination of enzyme inhibition constants (Ki) or the mode of inhibition (competitive, uncompetitive or noncompetitive), the rate data determined in the enzyme assays at varying inhibitor concentrations are computer-fit to standard enzyme kinetic equations (see I. H. Segel, Enzyme Kinetics, Wiley-Interscience, 1975).

Compound | pIC50 ([1]; Example 6 table) | melting point [°C] | pKi (ICE [2]; Example 4 table) | pKi (ICE [2]; Example 6 table) | pIC50 ([1]; Example 2 table) | pKi (ICE [3]) | pKi (ICE [2]; Example 2 table)
O=C[C@H](CC(=O)O)NC(=O)Cn1c(Cc2ccccc2)ccc(NC(=O)OCCc2ccccc2)c1=O [Compound 54k, 3(S)3-(6-Benzyl-1,2-dihydro-2-oxo-3-(2-phenylethoxy)carbonylamino-1-pyridyl)acetylamino-4-oxobutanoic acid] | 5.18 | 84 to 86 | 7.07 | – | – | – | –
O=C(O)C[C@H](NC(=O)[C@@H]1CCCN2C(=O)CC[C@H](NC(=O)CCc3ccccc3)C(=O)N12)C(=O)CSCc1ccccc1Cl [Compound 125b, [3S(1S,9S)]-3-(6,10-dioxo-1,2,3,4,7,8,9,10-octahydro)-9-(3-phenylpropionyl-amino)-6H-pyridazine[1,2-a][1,2]diazepine-1-carboxamido-5-(2-chlorophenyl-methylthio)-4-oxopentanoic acid] | 6.52 | 76 to 80 | – | 7.22 | – | – | –
CC(=O)N[C@@H](Cc1ccc(O)cc1)C(=O)N[C@H](C(=O)N1CCCC[C@H]1C(=O)N[C@H](C=O)CC(=O)O)C(C)C [H, N-(N-Acetyl-tyrosinyl-valinyl-pipecolyl)-3-amino-4-oxobutanoic acid] (Ac-YV[Pip]D-aldehyde) | – | – | – | – | 4.96 to 5.22 | 8.33 | 7.64
